These compounds were tested against CDK1 (Homo sapiens, UniProt P06493) (assay: Cyclin dependent protein kinase assay, CDK1). Settings: inhibitory activity against CDK1, baculovirus-expressed enzyme, [γ-32P]ATP peptide phosphorylation.
Format: biochemical

Sequence of CDK1 (P06493 whole entry, species assumed): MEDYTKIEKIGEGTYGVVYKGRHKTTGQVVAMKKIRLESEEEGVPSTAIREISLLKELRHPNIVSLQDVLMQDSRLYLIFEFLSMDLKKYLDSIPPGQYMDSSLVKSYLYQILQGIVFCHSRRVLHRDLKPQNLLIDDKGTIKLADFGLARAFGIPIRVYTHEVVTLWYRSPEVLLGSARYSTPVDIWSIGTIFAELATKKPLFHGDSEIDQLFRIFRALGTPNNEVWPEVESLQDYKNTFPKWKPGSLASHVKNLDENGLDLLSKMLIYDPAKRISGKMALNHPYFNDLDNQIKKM
Sequence of CDK1 (P14635 whole entry partner, species assumed): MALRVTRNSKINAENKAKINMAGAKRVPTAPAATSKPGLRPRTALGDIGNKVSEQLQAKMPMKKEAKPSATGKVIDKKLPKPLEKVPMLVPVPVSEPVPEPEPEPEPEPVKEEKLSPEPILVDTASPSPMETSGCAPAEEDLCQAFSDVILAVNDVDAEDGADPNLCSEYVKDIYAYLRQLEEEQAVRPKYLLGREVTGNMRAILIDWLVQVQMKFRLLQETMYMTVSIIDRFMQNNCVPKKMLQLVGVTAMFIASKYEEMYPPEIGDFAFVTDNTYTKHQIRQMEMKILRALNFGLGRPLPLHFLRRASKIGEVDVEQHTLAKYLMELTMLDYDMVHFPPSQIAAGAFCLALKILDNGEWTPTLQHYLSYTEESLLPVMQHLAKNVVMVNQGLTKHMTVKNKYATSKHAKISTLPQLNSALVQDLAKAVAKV

First: CC(C)(CO)CNS(=O)(=O)c1ccc(NC=C2C(=O)Nc3ccc4ncsc4c32)cc1 [Compound A1]
Second: O=C1Nc2ccc3ncsc3c2C1=CNc1ccc(S(=O)(=O)NCc2ccncc2)cc1 [Compound A3]
The IC50 of the first is lower: 1 to 10 nM for the first, 11 to 50 nM for the second. The first is the more potent here.

`O=C1Nc2ccc3ncsc3c2C1=CNc1ccc(S(=O)(=O)Nc2ccccn2)cc1` [Compound A2] showed an IC50 of 51 to 100 nM.

From patent publication US6620818B1, “Method for reducing the severity of side effects of chemotherapy and/or radiation therapy” (priority 2001, dated 2003)
